Where two headings read alike, the source gives them in different places.
Legend:
Mcl-1 = Mcl-1 (Homo sapiens (Human), UniProt Q07820); test: Fluorescence polarization anisotropy (FPA) competition assay, FITC-Bak or FITC-Bim BH3 peptide; format: binding; conditions: read-out: Ki for Inhibition of Mcl-1 by FPA assay
[1] = test system: H929 human cancer cell lines; test: Cellular viability / proliferation (Cell TiterGlo, 72 h); format: cell-based
Summary of the method: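 Plating is at 1,000 cells/well in 10% FBS medium; after 24 h, compound is added as a 2-fold series starting at 50 μM with under 1% DMSO.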

[2] = Homo sapiens, NCI-H929, 72 h, read-out: GI50 on cellular proliferation of H929 human cancer cell lines, H929 cells, 72 h, Cell TiterGlo, 10% FBS
[3] = read-out: GI50 on cellular proliferation of H929 human cancer cell lines, H929 cells, 72 h, Cell TiterGlo, 10% FBS

Sequence of Mcl-1 (Q07820 172-327): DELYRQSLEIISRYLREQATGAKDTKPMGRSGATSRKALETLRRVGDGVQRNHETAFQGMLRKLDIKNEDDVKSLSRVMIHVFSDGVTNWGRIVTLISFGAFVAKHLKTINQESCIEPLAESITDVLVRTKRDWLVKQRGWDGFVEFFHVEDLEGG

| Compound | Ki (Mcl-1) [nM] | GI50 [1, 2] [nM] | GI50 [1, 3] [nM] |
| --- | --- | --- | --- |
| Cc1cc(OCCCc2c3n(c4c(-c5c(C)nn(C)c5C)c(Cl)ccc24)[C@H](C)CN(c2cn(C)c4c(C)c(C(=O)O)ccc24)C3=O)cc(C)c1Cl [Example 250, (R)-3-(7-Chloro-10-(3-(4-chloro-3,5-dimethylphenoxy)propyl)-4-methyl-1-oxo-6-(1,3,5-trimethyl-1H-pyrazol-4-yl)-3,4-dihydropyrazino[1,2-a]indol-2(1H)-yl)-1,7-dimethyl-1H-indole-6-carboxylic acid] | < 1 | 480 | – |
| Cc1cc(OCCCc2c3n(c4c(-c5c(C)nc(CN6CCNCC6)nc5C)c(Cl)ccc24)[C@H](C)CN(c2cn(C)c4ccc(C(=O)O)cc24)C3=O)cc(C)c1Cl [Example 441, (R)-3-(7-Chloro-10-(3-(4-chloro-3,5-dimethylphenoxy)propyl)-6-(4,6-dimethyl-2-(piperazin-1-ylmethyl)pyrimidin-5-yl)-4-methyl-1-oxo-3,4-dihydropyrazino[1,2-a]indol-2(1H)-yl)-1-methyl-1H-indole-5-carboxylic acid] | 7 | 4600 | – |
| CC(=O)N1CCN(Cc2nc(C)c(-c3c(Cl)ccc4c(CCCOc5cc(C)c(Cl)c(C)c5)c5n(c34)[C@H](C)CN(c3cn(C)c4ccc(C(=O)O)cc34)C5=O)c(C)n2)CC1 [Example 433, (R)-3-(6-(2-((4-Acetylpiperazin-1-yl)methyl)-4,6-dimethylpyrimidin-5-yl)-7-chloro-10-(3-(4-chloro-3,5-dimethylphenoxy)propyl)-4-methyl-1-oxo-3,4-dihydropyrazino[1,2-a]indol-2(1H)-yl)-1-methyl-1H-indole-5-carboxylic acid] | 1.7 | 440 | – |
| Cc1cc(OCCCc2c3n(c4c(-c5c(C)nn(C)c5C)c(Cl)ccc24)[C@H](C)CN(c2cccc4cc5n(c24)CCN(CCC(C)C)C5=O)C3=O)cc(C)c1Cl [Example 229, (4R)-7-chloro-10-[3-(4-chloro-3,5-dimethyl-phenoxy)propyl]-2-(2-isopentyl-1-oxo-3,4-dihydropyrazino[1,2-a]indol-6-yl)-4-methyl-6-(1,3,5-trimethylpyrazol-4-yl)-3,4-dihydropyrazino[1,2-a]indol-1-one] | 3.7 | 9300 | – |
| Cc1cc(OCCCc2c3n(c4c(-c5c(C)ncnc5C)c(Cl)ccc24)CCCN(c2cn(C)c4ccc(C(=O)O)cc24)C3=O)cc(C)c1Cl [Example 156, 3-[8-Chloro-11-[3-(4-chloro-3,5-dimethyl-phenoxy)propyl]-7-(4,6-dimethylpyrimidin-5-yl)-1-oxo-4,5-dihydro-3H-[1,4]diazepino[1,2-a]indol-2-yl]-1-methyl-indole-5-carboxylic acid] | < 1 | 260 | – |
| Cc1cc(OCCCc2c3n(c4c(-c5c(C)nn(C)c5C)c(Cl)ccc24)[C@H](C)CN(c2ccc(F)c4c(C(=O)O)cn(C)c24)C3=O)cc(C)c1Cl [Example 447, (R)-7-(7-Chloro-10-(3-(4-chloro-3,5-dimethylphenoxy)propyl)-4-methyl-1-oxo-6-(1,3,5-trimethyl-1H-pyrazol-4-yl)-3,4-dihydropyrazino[1,2-a]indol-2(1H)-yl)-4-fluoro-1-methyl-1H-indole-3-carboxylic acid] | < 1 | 340 | – |
| Cc1cc(OCCCc2c3n(c4c(-c5c(C)nc(COCc6ccccc6)nc5C)c(Cl)ccc24)CCCN(c2cn(C)c4ccc(C(=O)O)cc24)C3=O)cc(C)c1Cl [Example 294, 3-[7-[2-(benzyloxymethyl)-4,6-dimethyl-pyrimidin-5-yl]-8-chloro-11-[3-(4-chloro-3,5-dimethyl-phenoxy)propyl]-1-oxo-4,5-dihydro-3H-[1,4]diazepino[1,2-a]indol-2-yl]-1-methyl-indole-5-carboxylic acid] | < 1 | 2000 | – |
| Cc1cc(OCCCc2c3n(c4c(-c5c(C)nn(C)c5C)c(Cl)ccc24)[C@H](C)CN(c2cn(CCN4CCOCC4)c4cc(C(=O)O)ccc24)C3=O)cc(C)c1Cl [Example 293, (R)-3-(7-chloro-10-(3-(4-chloro-3,5-dimethylphenoxy)propyl)-4-methyl-1-oxo-6-(1,3,5-trimethyl-1H-pyrazol-4-yl)-3,4-dihydropyrazino[1,2-a]indol-2(1H)-yl)-1-(2-morpholinoethyl)-1H-indole-6-carboxylic acid] | < 1 | – | 810 |
| Cc1cc(OCCCc2c3n(c4c(-c5c(C)nn(C)c5C)c(Cl)ccc24)[C@H](C)CN(c2cccc4c(C(=O)O)cn(C)c24)C3=O)cc(C)c1Cl [Example 214, (R)-7-(7-chloro-10-(3-(4-chloro-3,5-dimethylphenoxy)propyl)-4-methyl-1-oxo-6-(1,3,5-trimethyl-1H-pyrazol-4-yl)-3,4-dihydropyrazino[1,2-a]indol-2(1H)-yl)-1-methyl-1H-indole-3-carboxylic acid] | < 1 | – | 380 |
| Cc1cc(OCCCc2c3n(c4c(-c5c(C)nn(C)c5C)c(Cl)ccc24)[C@H](C)CN(c2cn(C)c4c(C(=O)O)cccc24)C3=O)cc(C)c1Cl [Example 75, (R)-3-(7-Chloro-10-(3-(4-chloro-3,5-dimethylphenoxy)propyl)-4-methyl-1-oxo-6-(1,3,5-trimethyl-1H-pyrazol-4-yl)-3,4-dihydropyrazino[1,2-a]indol-2(1H)-yl)-1-methyl-1H-indole-7-carboxylic acid] | < 1 | 1100 | – |
| Cc1cc(OCCCc2c3n(c4c(-c5c(C)ncnc5C)c(Cl)ccc24)[C@H](C)CN(c2cc(C(=O)O)c4ccn(C)c4c2)C3=O)cc(C)c1Cl [Example 152, 6-[(4R)-7-chloro-10-[3-(4-chloro-3,5-dimethyl-phenoxy)propyl]-6-(4,6-dimethylpyrimidin-5-yl)-4-methyl-1-oxo-3,4-dihydropyrazino[1,2-a]indol-2-yl]-1-methyl-indole-4-carboxylic acid] | < 1 | 850 | – |
| Cc1cc(OCCCc2c3n(c4c(-c5c(C)nn(C)c5C)c(Cl)ccc24)[C@H](C)CN(c2cn(C)c4ccc(-c5nnc(C6CC6)o5)cc24)C3=O)cc(C)c1Cl [Example 423, (R)-7-Chloro-10-(3-(4-chloro-3,5-dimethylphenoxy)propyl)-2-(5-(5-cyclopropyl-1,3,4-oxadiazol-2-yl)-1-methyl-1H-indol-3-yl)-4-methyl-6-(1,3,5-trimethyl-1H-pyrazol-4-yl)-3,4-dihydropyrazino[1,2-a]indol-1(2H)-one] | 2.3 | 1700 | – |
| Cc1cc(OCCCc2c3n(c4c(-c5c(C)nn(CC(=O)O)c5C)c(Cl)ccc24)CCCN(c2cccc4cccnc24)C3=O)cc(C)c1Cl [Example 144, 2-(4-(8-Chloro-11-(3-(4-chloro-3,5-dimethylphenoxy)propyl)-1-oxo-2-(quinolin-8-yl)-2,3,4,5-tetrahydro-1H-[1,4]diazepino[1,2-a]indol-7-yl)-3,5-dimethyl-1H-pyrazol-1-yl)acetic acid] | < 1 | 6500 | – |
| Cc1cc(OCCCc2c3n(c4c(-c5c(C)nn(C)c5C)c(Cl)ccc24)[C@H](C)CN(c2cccc4c2cc(C(=O)O)n4C(C)C)C3=O)cc(C)c1Cl [Example 197, (R)-4-(7-Chloro-10-(3-(4-chloro-3,5-dimethylphenoxy)propyl)-4-methyl-1-oxo-6-(1,3,5-trimethyl-1H-pyrazol-4-yl)-3,4-dihydropyrazino[1,2-a]indol-2(1H)-yl)-1-isopropyl-1H-indole-2-carboxylic acid] | < 1 | 670 | – |
